Experimental data reported in US7829560B2, “1,4-disubstituted naphthalenes as inhibitors of P38 MAP kinase” (Arqule, Inc., priority 2004, dated 2010).

Columns and labels:
[1] = target: T1, p38α (Homo sapiens, UniProt Q16539); experiment: p38 MAP Kinase assay: inhibition of ATF2 phosphorylation, ELISA; format: biochemical; conditions: for IC50: ATF2 phosphorylation, read-out: [ENZ] P38 ALPHA, IC50, ELISA; for inhibition at 10 µM: substrate ATF2, read-out: [ENZ] P38 ALPHA, PCT INH, ELISA (10 uM;ATF2) (Percent)
T1 construct: p38 MAP Kinases are recombinant human full-length proteins with an amino-terminal GST fusion; GST (N); purchased Upstate Biotechnology Inc; host or cells: E. coli
In short: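 GST-tagged full-length human p38 MAP kinase with GST-ATF2 (aa 19–96; 1.25 μM) and 40 μM ATP in HEPES pH 7.5 buffer, without (Method I) or with (Method II) 1% human serum albumin. Compound pre-incubated 15 min at room temperature; reaction 30 min at 37 °C; ATF2 Thr69 phosphorylation measured by ELISA (A450).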

[2] = system: TNFα release from THP-1 cells; experiment: Inhibition of TNFα release from LPS-stimulated THP-1 cells, ELISA; format: cell-based; conditions: Homo sapiens, THP-1, THP-1 cells, read-out: [CELL] THP-1, IC50, TNF ALPHA, ELISA
Source text: Compounds of the invention are screened for the ability to inhibit TNFα and IL-1β release from THP-1 cells stimulated with lipopolysaccharide (LPS) in vitro. The ability of compounds to inhibit TNFα and IL-1β release in this in vitro assay is correlated with the inhibition of p38 activity and TNFα and IL-1β expression in vivo, and is therefore an indicator of potential in vivo therapeutic activity (Lee J. C. et al, Ann. N.Y. Acad. Sci. 696: 149-170, 1993 and Nature, 372: 739-746, 1994).
Materials: THP-1 cells from ATCC (TIB202) are maintained at 37° C., 5% CO2 in RPMI 1640 media (available from MediaTech, Herndon, Va.) containing 4.5 g/L glucose, supplemented with 10% fetal bovine serum, 1% penicillin/streptomycin and 50 μM β-mercaptoethanol.
Methods: Test compounds are initially dissolved in RPMI media with 1% DMSO (v/v). Compounds are then serially diluted in RPMI media for all subsequent dilutions. The assay is performed under sterile conditions. THP-1 cells at a culture density of 6-8×10^5 cells/ml are collected and resuspended in the RPMI media at 10^6 cells/ml containing 10% fetal bovine serum, no serum or 1% human serum albumin (HSA). 100 μl of resuspended cells are added to each well, which contain 100 μl of a test compound. Test compounds are prepared at twice the final concentration. Final DMSO concentration is no more than 0.5% (v/v). Cells are preincubated with compound for 30 minutes at 37° C., 5% CO2 prior to stimulation with lipopolysaccharide (LPS) (Sigma L-2880, 4 mg/ml stock in PBS). The final LPS concentration in each well is 10 or 30 μg/ml for TNFα and IL-1β release, respectively. Unstimulated control cell suspensions receive PBS vehicle only. Cell mixtures are incubated for 18 or 48 hours for TNFα and IL-1β prelease, respectively. 150 μl of supernatants are taken and transferred to a fresh plate and stored at −20° C. until further analysis. TNFα and IL-1β levels are measured using ELISA kits from Biosource (Catalog no. KHC3012 for TNFα; KAC1192 for IL-1β). A SpectraMAX 250 is used as the plate reader. Analysis is performed by non-linear regression to generate a dose response curve. The calculated IC50 value is the concentration of the test compound that causes a 50% decrease in TNFα or IL-1β levels.

T1 sequence (Q16539 whole entry, the tested form may be a part): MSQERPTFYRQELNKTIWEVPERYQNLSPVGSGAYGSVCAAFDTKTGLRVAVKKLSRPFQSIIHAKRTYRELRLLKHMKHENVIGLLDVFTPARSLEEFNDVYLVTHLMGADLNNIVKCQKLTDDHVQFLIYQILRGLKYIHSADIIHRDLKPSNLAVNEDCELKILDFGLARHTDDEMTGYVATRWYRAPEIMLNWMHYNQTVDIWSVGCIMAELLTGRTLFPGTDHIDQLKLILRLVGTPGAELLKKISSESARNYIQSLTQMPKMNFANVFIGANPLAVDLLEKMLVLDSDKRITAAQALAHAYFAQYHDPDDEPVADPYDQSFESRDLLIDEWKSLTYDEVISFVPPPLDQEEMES

SMILES	IC50 [1] [µM]	IC50 [2] [µM]	inhibition at 10 µM [1] [%]
CN1CCN(c2cccc(C(=O)Nc3ccc(OCCN4CCOCC4)c4ccccc34)c2)CC1 [Compound B59]	> 10	> 10	
O=C(Nc1ccc(OCCN2CCOCC2)c2ccccc12)c1cccc(-c2ccncc2)c1 [Compound B86, N-[4-(2-Morpholin-4-yl-ethoxy)-naphthalen-1-yl]-3-pyridin-4-yl-benzamide]	4.16	2.71	67
CC(=O)c1cccc(-c2cccc(C(=O)Nc3ccc(OCCN4CCOCC4)c4ccccc34)c2)c1 [Compound B279]	> 10	> 10	
CCc1ccccc1-c1cccc(C(=O)Nc2ccc(OCCN3CCOCC3)c3ccccc23)c1 [Compound B291]	9.19	6.14	
CC1CN(c2cc(F)cc(C(=O)Nc3ccc(OCCN4CCOCC4)c4ccccc34)c2)CC(C)O1 (centres unmarked) [Compound B211]	> 10	> 10	
CC(=O)N1CCN(c2ccc(NC(=O)c3cc(F)cc(N4CCC(C)CC4)c3)c3ccccc23)CC1 [Compound B196]	3.19	> 10	
O=C(Nc1ccc(NCCN2CCOCC2)c2ccccc12)c1cc(F)cc(N2CCCCC2)c1 [Compound B242]	2.03	10.6	
O=C(Nc1ccc(OCCN2CCOCC2)c2ccccc12)c1cccc(-c2cccc(C(F)(F)F)c2)c1 [Compound B88, 3′-Trifluoromethyl-biphenyl-3-carboxylic acid [4-(2-morpholin-4-yl-ethoxy)-naphthalen-1-yl]-amide]	1.85	3.6	59
O=C(Nc1ccc(OCCN2CCOCC2)c2ccccc12)c1ccccc1 [Compound B26]	21.8	> 10	
CC1CCCC(C)N1c1cc(F)cc(C(=O)Nc2ccc(OCCN3CCOCC3)c3ccccc23)c1 (centres unmarked) [Compound B205, 3-(2,6-Dimethylpiperidin-1-yl)-5-fluoro-N-[4-(2-morpholin-4-ylethoxy)-1-naphthyl]benzamide]	1.68	> 10	
CCOC(=O)N1CCN(c2nccc(Oc3ccc(NC(=O)c4cc(F)cc(N5CCOCC5)c4)c4ccccc34)n2)CC1 [Compound B329, Ethyl-4-[4-({4-[(3-fluoro-5-morpholin-4-ylbenzoyl)amino]-1-naphthyl}oxy)pyrimidin-2-yl]piperazine-1-carboxylate]	0.0105	> 1	
CSc1nccc(Oc2ccc(NC(=O)c3cccc(-c4ccc(F)cc4C)c3)c3ccccc23)n1 [Compound B269, 4′-Fluoro-2′-methyl-biphenyl-3-carboxylic acid [4-(2-methylsulfanylpyrimidin-4-yloxy)-naphthalen-1-yl]-amide]	0.162	0.152	
O=C(Nc1ccc(OCCN2CCOCC2)c2ccccc12)c1ccc2c(c1)OCCCO2 [Compound B62]	> 10	> 10	
O=C(Nc1ccc(OCCN2CCOCC2)c2ccccc12)c1cccc(Oc2ccccc2)c1 [Compound B61]	2.3	> 10	
CC1CCN(c2cc(F)cc(C(=O)Nc3ccc(OCCN4CCNC(=O)C4)c4ccccc34)c2)CC1 [Compound B197, 3-Fluoro-5-(4-methyl-piperidin-1-yl)-N-{4-[2-(3-oxo-piperazin-1-yl)-ethoxy]-naphthalen-1-yl}-benzamide]	1.42	6.63	
O=C(Nc1ccc(OCCN2CCOCC2)c2ccccc12)c1cc(F)cc(N2CCc3ccccc3C2)c1 [Compound B200]	> 10	> 10	

SMILES	IC50 [1] [µM]	IC50 [2] [µM]	inhibition at 10 µM [1] [%]
CC1CCN(c2cc(F)cc(C(=O)Nc3ccc(OCc4nn[nH]n4)c4ccccc34)c2)CC1 [Compound B193, 3-Fluoro-5-(4-methylpiperidin-1-yl)-N-[4-(2H-tetrazol-5-ylmethoxy)-naphthalen-1-yl]-benzamide]	3.84	> 10	
CN1CCC(Nc2nccc(Oc3ccc(NC(=O)c4cc(F)cc(N5CCCCC5)c4)c4ccccc34)n2)CC1 [Compound B409, 3-Fluoro-N-[4-({2-[(1-methylpiperidin-4-yl)amino]pyrimidin-4-yl}oxy)-1-naphthyl]-5-piperidin-1-ylbenzamide]	0.0018	0.0687	
O=C(Nc1ccc(NCCN2CCOCC2)c2ccccc12)c1cc(F)cc(N2CCOCC2)c1 [Compound B241]	8.25	9.42	
O=C(Nc1ccc(OCCN2CCOCC2)c2ccccc12)c1cc(N2CCOCC2)nc(Cl)n1 [Compound B42, 2-Chloro-6-morpholin-4-yl-pyrimidine-4-carboxylic acid [4-(2-morpholin-4-yl-ethoxy)-naphthalen-1-yl]-amide]	6.34	> 1	
COc1ccc(F)cc1-c1cccc(C(=O)Nc2ccc(OCCN3CCOCC3)c3ccccc23)c1 [Compound B289]	1.47	3.09	
O=C(Nc1ccc(OCCN2CCOCC2)c2ccccc12)c1cccc(-c2cc(F)ccc2F)c1 [Compound B280]	5.6	3.52	
Cc1cc(F)ccc1-c1cccc(C(=O)Nc2ccc(Oc3ccnc(NCC(C)(C)CN(C)C)n3)c3ccccc23)c1 [Compound B314, 4′-Fluoro-2′-methyl-biphenyl-3-carboxylic acid {4-[2-(3-dimethylamino-2,2-dimethyl-propylamino)-pyrimidin-4-yloxy]-naphthalen-1-yl}-amide]	0.001	0.0412	
O=C(Nc1ccc(OCCN2CCOCC2)c2ccccc12)c1ccnc(N2CCCCC2)c1 [Compound B127, 3,4,5,6-Tetrahydro-2 H-[1,2′]bipyridinyl-4′-carboxylic acid [4-(2-morpholin-4-yl-ethoxy)-naphthalen-1-yl]-amide]	1.88	0.782	68.5
C=Cc1ccc(-c2cccc(C(=O)Nc3ccc(OCCN4CCOCC4)c4ccccc34)c2)cc1 [Compound B281]	> 10	> 10	
CC1CCCCN1c1cc(F)cc(C(=O)Nc2ccc(OCCN3CCOCC3)c3ccccc23)c1 (centres unmarked) [Compound B201, 3-Fluoro-5-(2-methylpiperidin-1-yl)-N-[4-(2-morpholin-4-ylethoxy)-1-naphthyl]benzamide]	0.323	4.73	
CSc1cccc(-c2cccc(C(=O)Nc3ccc(OCCN4CCOCC4)c4ccccc34)c2)c1 [Compound B298]	7.37	> 10	
O=C1CCN(c2cc(F)cc(C(=O)Nc3ccc(OCCN4CCOCC4)c4ccccc34)c2)CC1 [Compound B198, 3-Fluoro-N-[4-(2-morpholin-4-yl-ethoxy)-naphthalen-1-yl]-5-(4-oxo-piperidin-1-yl)-benzamide]	1.77	8.5	
CC(C)(C)CNc1cccc(C(=O)Nc2ccc(OCCN3CCOCC3)c3ccccc23)c1 [Compound B173, 3-(2,2-Dimethyl-propylamino)-N-[4-(2-morpholin-4-yl-ethoxy)-naphthalen-1-yl]-benzamide]	0.735	2.28	89.5
CC(C)(C)C1CCC(Oc2cc(F)cc(C(=O)Nc3ccc(OCc4ccncc4)c4ccccc34)c2)CC1 (centres unmarked) [Compound B236]	> 10	> 10	
CN(C)CC(C)(C)CNc1nccc(Oc2ccc(NC(=O)c3cc(F)cc(N4CCOCC4)c3)c3ccccc23)n1 [Compound B317, N-{4-[2-(3-Dimethylamino-2,2-dimethyl-propylamino)-pyrimidin-4-yloxy]-naphthalen-1-yl}-3-fluoro-5-morpholin-4-yl-benzamide]	0.0099	0.0238	
N#CNc1nccc(Oc2ccc(NC(=O)c3cc(F)cc(N4CCOCC4)c3)c3ccccc23)n1 [Compound B330, N-(4-{[2-(Cyanoamino)pyrimidin-4-yl]oxy}-1-naphthyl)-3-fluoro-5-morpholin-4-ylbenzamide]	0.0515	> 1	
